Assay results from US10617701B2, “Nutritional compositions containing phosphatidylethanolamine, sphingomyelin and docosahexaenoic acid” (Mead Johnson Nutrition Company, priority 2015, dated 2020).

Legend:
[1] = test system: embryonic mouse cortical cells; assay: Functional neuronal maturation of cortical networks on microelectrode arrays (MEA recording, chronic treatment); type: cell-based; details: for acute effect on neuronal network activity in vitro: cortical networks on MEAs
Description: Cortical cells were grown on multi-well microelectrode arrays (MEAs) and treated with 10 different experimental series, including different combinations of test agents (PE, SM, LF and DHA) and the activity was recoded at 4 different time points during the 4 weeks of functional neuronal maturation Cells growing on glass slides were treated in parallel for morphological and cell population analysis. These experiments aimed to elucidate whether the test compounds affect the functional and morphological neuronal maturation […] (see FIG. 1).
All experiments were performed according to the standard operating protocols (SOPs): “SOP Preparation Frontal Cortex Mouse—Serum,” “SOP Solutions for Neuronal Cell Culture,” “SOP Cleaning and Substrate Preparations of MEAs,” “SOP Feeding neuronal cell culture,” “SOP Cell culture preparation MEAs,” “SOP Plexon Recording,” “SOP Plexon Data Analysis.”
Microelectrode Array Neurochips: THE MEA neurochips were provided by the Center for Network Neuroscience (CNNS) at the University of North Texas. These 5×5 cm^2 glass chips have a dual recording matrix with 32 passive electrodes per matrix and indium tin oxide conductors. The hydrophobic insulation material surface was activated by a brief butane flame pulse through a stainless steel mask. Thus, cell attachment on a confined adhesive region (5 mm diameter centered on the electrode array) is ensured. The activated surface regions were coated with poly-D-lysine (25 microgram/mL; 30-70 kD) and incubated overnight. […]
Primary cell culture for MEA recordings: In brief, frontal cortex tissue was harvested from embryonic day […] NMRI mice. […] Cultures on MEAs were incubated at 37° C. in a 10% CO2 atmosphere until ready for use, which usually is four weeks to three months after seeding. […]
Multichannel Recording: After establishing a stable activity pattern after 4 weeks, the neuronal networks on MEA chips are employed for substance testing. […] The signals routinely recorded by these neurochips are located in a range of 15-1800 […] . […]

[2] = test system: embryonic mouse cortical cells; assay: Immunocytochemistry / fluorescence image analysis of neuronal network morphology (neuron number, % neurons, synaptic density); type: cell-based; details: chronic treatment over 4 weeks
Description: Primary Cell culture for immunocytochemistry and Fluorescence staining: The chronically treated cultures were grown on 24-well plates on 13 mm glass cover slides and cultured with PNGM medium including 5% FCS and gentamycin+ampicillin. The cells were treated 2× per week during ⅓ medium exchange. The complete concentration of phospholipids was replenished every time.
Immunocytochemistry and Fluorescence staining: These 24 well-plate cultures were analyzed by immunocytochemistry, fluorescence microscopy and semiautomatic quantitative image analysis at 7, 14, 21, and 28 days. […] Cortical networks were embedded with Prolong anti-fade gold (Invitrogen, Darmstadt, Germany) and images acquired with an upright fluorescence microscope (Nikon Eclipse TE200, NikonAG, Tokyo, Japan).
Image analysis: These images were analyzed by semi-automatic image quantification tools (MS Excel macro-based in house analyses; ImageJ, Rawak Software, NIH, USA). […]
The repeated treatment with LF+PE+SM+DHA affects development of neuronal network morphology: The recorded networks were fixed after the final 28 div recording and immunostained for neuronal markers. Images were taken and the cell neuronal numbers quantified by semi-automatic image analyses.

Row | Substance | acute effect on neuronal network activity in vitro [1] | developmental halt at later stages ([1]; repeated treatment 2x per week, DHA 20 μM, PE 100 nM, LF 300 nM, SM 100 nM, recorded at 7-10, 14, 21 and 28 div, FIG. 2) | synaptic density [2]
1 | phosphatidylethanolamine [PE] | acutely affect neuronal network activity |  | 
2 | sphingomyelin [SM] | acutely affect neuronal network activity | developmental halt at later stages | able to increase the synaptic density
